Here are results for 72 compounds from PubChem BioAssay AID179 (DTP/NCI, 2004).

The assay deals with CEM cells HIV-1 protection, formazan growth assay. Put plainly: NCI AIDS Antiviral Assay. Particulars: for IC50: measured here: growth of uninfected CEM cells. Summed up: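 Protection of CEM cells against HIV-1 was scored from cell growth (soluble formazan) across five concentrations, with parallel uninfected cells. Lack of protection may reflect toxicity.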

Values joined by “and” are separate entries in the source; they are usually repeats but may differ in a detail not shown here. Equal values may be shown once. Active and inactive are the calls of the source.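 How the source made its calls: active means compounds giving half or more protection of infected cells from virus-caused growth loss, again on retest; inactive means the rest.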 Where a SMILES comes first, the peptide text is derived from it. [ ]: non-standard residue; d: D form. Hpg = N[CH](C(=O)O)c1ccc(O)cc1

The term EC50 denotes the concentration needed to bring the measured effect to its halfway point. In general, IC50 refers to the concentration at which inhibition is half-maximal. A low value points to inhibition by little substance. Turning to `CCCCCSSSCCCCC`, the EC50 was above 200 µM and the IC50 amounted to 34.7 µM.

Turning to `COC(=O)C(=O)C(/C=N/C(=S)N=Nc1c(O)[nH]c2ccccc12)=C(\O)c1c(C)[nH]c2ccccc12`, the EC50 was 26.9 µM and the 50% inhibitory concentration (IC50) stood at 105 µM.

For the compound `CN(C)/C(N)=N/C(N)=S`, the result was inactive.

In the case of `Cn1c(=O)c2nc(-c3ccccc3)nnc2n(C)c1=O`, the EC50 is above 200 µM and the IC50 is 93.3 µM.

In the case of `CC(=O)NC(Cc1cnc[nH]1)C(=O)N1CCCC1C(N)=O` (stereo unspecified), the EC50 is above 200 µM and the IC50 is above 200 µM.

As to `CN(Cc1c(S)ccc2ccccc12)Cc1c(S)ccc2ccccc12`, the EC50 is above 100 µM and the IC50 came to 17 µM.

With `N/C(=N/N=C/c1cc(Cl)ccc1O)N/N=C\c1cc(Cl)ccc1O`, the EC50 is above 2 µM and the IC50 was 1 µM.

For `CCOCCN(Cc1ccc(CN(CCOCC)C(=O)C(Cl)Cl)cc1)C(=O)C(Cl)Cl`, the EC50 is above 200 µM and the IC50 was above 200 µM.

As to `COC1C2C=CC(C2)[C@H]1[N+](=O)[O-]` (stereo partly specified), the result was inactive.

In the case of `C=C(C)C(CC=C(C)C)Cc1c(O)cc(OC)c2c1OC(c1ccc(O)cc1O)C(O)C2=O` (stereo unspecified), the EC50 was above 200 µM and the IC50 was found to be 29.5 µM.

As to `O=S(=O)([O-])c1ccc(C=Nc2ccccc2)c([O-])c1.O=S(=O)([O-])c1ccc(C=Nc2ccccc2)c([O-])c1.[Co+2]`, the EC50 was above 407 µM and the IC50 came out at 95.5 µM.

With `N#[N+]C1=NC2C(=O)NC=NC2=N1` (stereo unspecified), the EC50 was above 83.2 µM and the half-maximal inhibitory concentration (IC50) was above 83.2 µM.

Consider `Cc1cc(C)c(C(=O)OC(c2ccccc2)C(c2ccccc2)N2CCOCC2)c(C)c1` (stereo unspecified), for which the result was inactive.

On to `COc1c(O)cc2oc(-c3ccc(O)cc3)cc(=O)c2c1O`, for which the EC50 was above 148 µM and the IC50 was determined as 35.5 µM.

As for `O[C@H]1[C@H]2c3cc4c(cc3CN3CCC(C[C@@H]1O)[C@H]23)OCO4` (stereo partly specified), the outcome was inactive.

Take `Nc1ccc(C2=Nc3ccccc3SC(c3ccccc3O)C2)cc1` (stereo unspecified): the EC50 is above 11 µM and the IC50 is above 11 µM.

`CC(C)(C)n1c(=O)[nH]c(=O)n1C(C)(C)C`: the EC50 is above 200 µM and the IC50 was above 200 µM.

As for `COc1ccc(C(CC(C)=O)c2c(O)c3ccccc3oc2=O)cc1OC` (stereo unspecified), the EC50 is above 200 µM and the IC50 is above 200 µM.

Take `CCOC(=O)C(=O)C1CCCCC1=O` (stereo unspecified): the EC50 is above 200 µM and the IC50 came to 43.7 µM.

Turning to `O=C(/C=C\c1ccc(-c2ccccc2)cc1)c1cccs1`, the EC50 is above 200 µM and the half-maximal inhibitory concentration (IC50) was 11.2 µM.

On to `Cc1ccc(-c2c(C#N)c(O)n(NS(=O)(=O)c3ccccc3)c(=O)c2C#N)cc1`, for which the EC50 was above 200 µM and the IC50 is above 200 µM.

For the compound `CCCCOC(=O)C1CSSCC(NC(C)=O)C(=O)N1` (stereo unspecified), the EC50 was above 200 µM and the IC50 came out at 112 µM.

For `CCCC(=O)CC(C)C(=O)C(=O)NC12CC3CC(CC(C3)C1)C2` (stereo unspecified), the EC50 is above 295 µM and the IC50 is above 295 µM.

On to `CSc1nc(N)c(NC2OC(CO)C(O)C2O)c(=O)[nH]1` (stereo unspecified), for which the EC50 is 81.3 µM and > 200 µM; the IC50 is 110 µM and 112 µM.

On to `CC(=O)c1cccn1/C=C(\OC(=O)OC(C)(C)C)c1ccc[nH]1`, for which the EC50 was 155 µM and the half-maximal inhibitory concentration (IC50) is 162 µM.

In the case of `Cc1cc(C2C(=O)c3ccccc3C2=O)cc(C)c1O`, the result was inactive.

Turning to `CCCCNCCCNCCCNC(=O)c1csc(-c2csc(CCNC(=O)C(NC(=O)C(C)C(O)C(C)NC(=O)C(NC(=O)c3nc(C(CC(N)=O)NCC(N)C(N)=O)nc(N)c3C)C(OC3OC(CO)C(O)C(O)C3OC3OC(CO)C(O)C(OC(N)=O)C3O)c3cnc[nH]3)C(C)O)n2)n1` (stereo unspecified), the result was inactive.

With `COc1ccc(C(c2cc(OC)c(OC)c(OC)c2)N2C(=O)CCC2C(=O)O)cc1` (stereo unspecified), the EC50 is above 200 µM and the 50% inhibitory concentration (IC50) was found to be 33.1 µM.

`COC(=O)CCc1ccc2c(c1)C(=O)CC2`: the EC50 is above 200 µM and the IC50 is above 200 µM.

Consider `CC(C)CC(N)C(=O)NC(C(N)=O)c1ccc(O)cc1` (stereo unspecified) (H-Leu-[Hpg]-NH2; configuration not given here), for which the EC50 was above 200 µM and the IC50 is above 200 µM.

As for `O=C(O)CC1SC2(C(=O)N(Cc3ccccc3)c3ccccc32)N(c2ccccc2)C1=O` (stereo unspecified), the EC50 was above 200 µM and the IC50 was above 100 µM.

For the compound `COc1cc(C2SC(N)=Nc3c2c(C)nn3C(=O)Cc2ccccc2)ccc1O` (stereo unspecified), the EC50 is 70.8 µM and the IC50 is above 200 µM.

Turning to `CCOC(=O)c1ccc2c(=O)[nH]nc(CO)c2c1`, the EC50 is above 200 µM and the IC50 came to 117 µM.

Turning to `Cc1ccc(-c2cc[n+]3c(n2)oc2ccccc23)cc1`, the EC50 is above 200 µM and the IC50 was 3.63 µM.

In the case of `CC1(C)Oc2ncnc(N)c2C1c1ccccc1` (stereo unspecified), the EC50 was above 1020 µM and the IC50 stood at 457 µM.

As for `CCOP(=O)(OCC)/C(C#N)=C/c1cccc(C#N)c1`, the EC50 is above 617 µM and the IC50 turned out to be 102 µM.

Turning to `CCOC(=O)C(=O)N=Nc1nc2c(O)c3ccccc3c(O)c2s1`, the EC50 is above 15.1 µM and the IC50 stood at 8.71 µM.

Consider `CCCCc1ccc(Nc2ncc3[nH]cnc3n2)cc1`, for which the EC50 is above 200 µM and the IC50 stood at 29.5 µM.

Turning to `CC1C(c2ccc(Cl)cc2)c2cc3c(cc2OC1N1CCOCC1)OCO3` (stereo unspecified), the EC50 is above 100 µM and the IC50 worked out at 21.4 µM.

Consider `Cc1cc(C)c2c(c1)C(=O)/C(=C/c1ccccc1C(=O)O)C2`, for which the result was inactive.

For the compound `CN1C(=O)CCC2(c3ccccc3)CC=C(O)C=C12` (stereo unspecified), the EC50 is above 200 µM and the IC50 is above 200 µM.

For `COc1cc(O)c(C(=O)/C=C/c2ccc(Cl)c(Cl)c2)c(OC)c1`, the EC50 was above 200 µM and the IC50 was 3.02 µM.

Consider `CC(C)N(C(=O)C12C3C4C5C3C1(C#N)C5C42)C(C)C` (stereo unspecified), for which the EC50 is above 195 µM and the half-inhibitory concentration (IC50) is above 195 µM.

Take `CCOC(=O)c1ccc(NCc2ccc3nc(OC)c(OC)nc3c2)cc1`: the EC50 is above 100 µM and the IC50 was above 100 µM.

Take `CC1=C(C)C(=O)C(C2=CC(=O)c3ccccc3C2=O)=C(C2=CC(=O)c3ccccc3C2=O)C1=O`: the EC50 is above 200 µM and the IC50 is 3.39 µM.

Consider `CC(NC(=O)OC(C)(C)C)C(=O)NC(Cc1ccccc1)C(=O)NCC(=O)Oc1c(Cl)c(Cl)c(Cl)c(Cl)c1Cl` (stereo unspecified), for which the EC50 was above 200 µM and the IC50 was 4.27 µM.

Take `COc1cc([N+](=O)[O-])ccc1NC(=O)C(F)(F)F`: the EC50 is above 200 µM and the IC50 amounted to 57.5 µM.

In the case of `O=c1[nH]c2cc(C(F)(F)F)ccc2nc1CBr`, the EC50 was above 200 µM and the IC50 was 6.61 µM.

`CCC1(N=[N+]=[N-])C(=O)Nc2cc(C)ccc2C1=O` (stereo unspecified): the EC50 is above 200 µM and the IC50 was above 100 µM.

Turning to `O=C1[C@H]2ON(c3ccccc3)C(c3ccc(Cl)cc3)[C@H]2C(=O)N1c1ccc(Cc2ccc(N3C(=O)[C@@H]4ON(c5ccccc5)C(c5ccc(Cl)cc5)[C@@H]4C3=O)cc2)cc1` (stereo partly specified), the EC50 was above 6.31 µM and the half-maximal inhibitory concentration (IC50) was above 6.31 µM.

As for `O=C(NCc1ccc2ccc3cccnc3c2n1)c1ccc[n+](Cc2ccccc2)c1`, the EC50 was above 513 µM and the IC50 is 24.5 µM.

In the case of `CC1=N/C(=C\c2ccc(Br)cc2)C(=O)O1`, the EC50 was above 135 µM and the IC50 is above 135 µM.

Take `NC(CSS(=O)(=O)O)=NC1CC2CCC1C2` (stereo unspecified): the EC50 is above 200 µM and the IC50 is 120 µM.

For the compound `c1ccc2c(c1)nc1n2CC2(CS1)CSc1nc3ccccc3n1C2`, the result was inactive.

As for `Cl/C(N=Nc1ccccc1)=N/Nc1ccccc1`, the outcome was inactive.

Take `COc1ccc2c3c1OC1C(OC)(OC)CC4(C=C2)CN(C)CCC314` (stereo unspecified): the result was inactive.

Take `NS(=O)(=O)c1ccc(NC(=O)Cc2nc3ccccc3s2)cc1`: the EC50 is above 195 µM and the IC50 was determined as 14.1 µM.

Turning to `Cc1nnc(N/N=C(/C(=O)C(C#N)c2ccc(Cl)cc2)C(C#N)c2ccc(Cl)cc2)n1N` (stereo unspecified), the EC50 is above 537 µM and the IC50 stood at 91.2 µM.

Regarding `COc1ccc2c(CCNC(C)=O)c(C(C)=O)[nH]c2c1`, the outcome was inactive.

Regarding `CC1=C(C(=O)NC(C)(C)C)CC(C(=O)NC(C)(C)C)C(C)N1` (stereo unspecified), the EC50 is above 200 µM and the IC50 was above 200 µM.

For the compound `CC(=O)OCc1cc(OC(C)=O)c2cc3c(OC(C)=O)cccc3c(OC(C)=O)c2c1`, the EC50 was above 200 µM and the IC50 is 28.2 µM.

As for `CC1(C)Oc2ccc3ccccc3c2[C@@H](OC(=O)C23CCC(C)(C(=O)O2)C3(C)C)[C@H]1OC(=O)C12CCC(C)(C(=O)O1)C2(C)C` (stereo partly specified), the EC50 was above 200 µM and the IC50 stood at 3.55 µM.

With `Cc1[nH]n(-c2nc3c(c(=O)[nH]2)CCC3)c(=O)c1CCO`, the EC50 is above 200 µM and the half-maximal inhibitory concentration (IC50) was 182 µM.

For `COc1cc(C(O)(CC#N)c2cc3c(cc2Br)OCO3)cc(OC)c1OC` (stereo unspecified), the EC50 was above 200 µM and the concentration for half-maximal inhibition (IC50) stood at 10 µM.

Regarding `c1ccc(N=c2sc3ccccc3sc2=Nc2ccccc2)cc1`, the EC50 was above 200 µM and the IC50 came to 3.09 µM.

Consider `CCCCn1c(-c2ccc(Cl)cc2)cs/c1=N\Nc1nc2c(c(=O)n(C)c(=O)n2C)n1C`, for which the EC50 is above 33.1 µM and the IC50 amounted to 11 µM.

With `Cc1cc(C)c(C(=O)C(C)C(c2ccccc2)c2ccc(Cl)cc2)c(C)c1` (stereo unspecified), the EC50 was above 26.3 µM and the IC50 was above 26.3 µM.

Regarding `CC(=O)/C(=C/c1ccc(-c2ccccc2)cc1)C(=O)c1ccccc1`, the EC50 was 1.58 µM and the IC50 came out at 15.8 µM.

For `COc1cc2c(c(OC)c1OC)-c1ccc(SC)c(=O)cc1[C@@H](NC(=O)C(F)(F)F)CC2`, the EC50 is above 75.9 µM and the IC50 stood at 0.0245 µM.

For the compound `O=C1c2ccccc2C(=O)N1N1C(=O)C2C3CCC(O3)C2C1=O` (stereo unspecified), the EC50 is above 200 µM and the 50% inhibitory concentration (IC50) was found to be 95.5 µM.

Consider `OC1CCCC2CCC[N-]C12.OC1CCCC2CCC[N-]C12.[Mn+2]` (stereo unspecified), for which the outcome was inactive.

Take `Cc1cc(N(CCC#N)CCC#N)ccc1/C=C(\NC(=O)/C=C/c1ccccc1)C(=O)N=[N+]=[N-]`: the result was inactive.
